In ChEMBL document CHEMBL4715742, “Design, synthesis and cytotoxic activities of novel 2,5-diketopiperazine derivatives” (Eur J Med Chem, 2016):

Tests used:
Type in all cases: functional, cell-based
MCF7 = assay: Cytotoxicity against human MCF7 cells assessed as reduction in cell viability measured after 72 hrs by CCK8 assay
HeLa = assay: Cytotoxicity against human HeLa cells assessed as reduction in cell viability measured after 72 hrs by CCK8 assay
DU-145 = assay: Cytotoxicity against human DU-145 cells assessed as reduction in cell viability measured after 72 hrs by CCK8 assay
K562 = assay: Cytotoxicity against human K562 cells assessed as reduction in cell viability measured after 72 hrs by CCK8 assay
HT-29 = assay: Cytotoxicity against human HT-29 cells assessed as reduction in cell viability measured after 72 hrs by CCK8 assay
HL-60 = assay: Cytotoxicity against human HL-60 cells assessed as reduction in cell viability measured after 72 hrs by CCK8 assay
U-937 = assay: Cytotoxicity against human U-937 cells assessed as reduction in cell viability measured after 72 hrs by CCK8 assay
A549 = assay: Cytotoxicity against human A549 cells assessed as reduction in cell viability measured after 72 hrs by CCK8 assay
[1] = Homo sapiens, K562, 72 h, read-out: IC50
[2] = Homo sapiens, HL-60, 72 h, read-out: IC50
[3] = Homo sapiens, U-937, 72 h, read-out: IC50
[4] = Homo sapiens, MCF7, 72 h, read-out: IC50
[5] = Homo sapiens, HeLa, 72 h, read-out: IC50
[6] = Homo sapiens, DU-145, 72 h, read-out: IC50
[7] = Homo sapiens, HT-29, 72 h, read-out: IC50
[8] = Homo sapiens, A549, 72 h, read-out: IC50

SMILES	IC50 (MCF7; mcf7)	IC50 (HeLa; hela)	IC50 (DU-145; du-145)	IC50 (K562; [1]) [µM]	IC50 (HT-29; ht-29)	IC50 (HL-60; [2]) [µM]	IC50 (U-937; [3]) [µM]	IC50 (A549; a549)	IC50 (MCF7; [4]) [µM]	IC50 (HeLa; [5]) [µM]	IC50 (DU-145; [6]) [µM]	IC50 (HT-29; [7]) [µM]	IC50 (HL-60; hl-60)	IC50 (A549; [8]) [µM]	IC50 (K562; k562)	IC50 (U-937; u-937)
C=CCn1c(=O)/c(=C/CCCCCCCCC)[nH]c(=O)/c1=C/c1ccc(OC)cc1	Not Active	Not Active	Not Active	11.7	Not Active	5.3	10.3	Not Active								
C=CCn1c(=O)/c(=C/CC)[nH]c(=O)/c1=C/c1ccc(OC)cc1				2.1			1.48		4.3	4.6	8.9	4.2	Not Active	6.1		
C=CCn1c(=O)/c(=C/CCCCCC)[nH]c(=O)/c1=C/c1cccc(OC)c1	Not Active	Not Active	Not Active		Not Active			Not Active					Not Active		Not Active	Not Active
C=CCn1c(=O)/c(=C/c2cccc(Cl)c2Cl)[nH]c(=O)/c1=C/c1ccccc1OC				0.9		2	0.5		2.1	1.6	4.2	3.2		2.3		
C=CCn1c(=O)/c(=C/CCCCCCCCCCC)[nH]c(=O)/c1=C/c1ccccc1OC	Not Active	Not Active	Not Active		Not Active			Not Active					Not Active		Not Active	Not Active
C=CCn1c(=O)/c(=C/CCCCCCC)[nH]c(=O)/c1=C/c1ccc(OC)cc1				1.5		28.2	1.1		2.8	2.3	2.9	2.2		2.9		
C=CCn1c(=O)/c(=C/CC)[nH]c(=O)/c1=C/c1cccc(OC)c1	Not Active	Not Active	Not Active		Not Active			Not Active					Not Active		Not Active	Not Active
C=CCn1c(=O)/c(=C/CCCCCCCCCCCCCCC)[nH]c(=O)/c1=C/c1ccc(OC)cc1	Not Active	Not Active	Not Active		Not Active			Not Active					Not Active		Not Active	Not Active
C=CCn1c(=O)/c(=C/CCCCCCCCCCCCCCC)[nH]c(=O)/c1=C/c1cccc(OC)c1	Not Active	Not Active	Not Active		Not Active			Not Active					Not Active		Not Active	Not Active
C=CCn1c(=O)/c(=C/CCCCCCCCCCCCCCC)[nH]c(=O)/c1=C/c1ccccc1OC	Not Active	Not Active	Not Active		Not Active			Not Active					Not Active		Not Active	Not Active
C=CCn1c(=O)/c(=C/CCCCCCCCCCC)[nH]c(=O)/c1=C/c1ccc(OC)cc1	Not Active	Not Active	Not Active		Not Active			Not Active					Not Active		Not Active	Not Active
C=CCn1c(=O)/c(=C/CCC)[nH]c(=O)/c1=C/c1cccc(OC)c1	Not Active	Not Active	Not Active		Not Active			Not Active					Not Active		Not Active	Not Active
C=CCn1c(=O)/c(=C/CCCCC)[nH]c(=O)/c1=C/c1cccc(OC)c1	Not Active	Not Active	Not Active		Not Active			Not Active					Not Active		Not Active	Not Active
C=CCn1c(=O)/c(=C/CCCCCCC)[nH]c(=O)/c1=C/c1ccccc1OC	Not Active	Not Active	Not Active		Not Active			Not Active					Not Active		Not Active	Not Active
C=CCn1c(=O)/c(=C/CCCCC)[nH]c(=O)/c1=C/c1ccc(OC)cc1				0.7			0.5		2.3	1.1	2.1	1.7	Not Active	1.9		
C=CCn1c(=O)/c(=C/CCCCCCCC)[nH]c(=O)/c1=C/c1cccc(OC)c1	Not Active	Not Active	Not Active		Not Active			Not Active					Not Active		Not Active	Not Active
C=CCn1c(=O)/c(=C/CCCCCCCCCC)[nH]c(=O)/c1=C/c1ccccc1OC	Not Active	Not Active	Not Active		Not Active			Not Active					Not Active		Not Active	Not Active
C=CCn1c(=O)/c(=C/CCCCCCCCCC)[nH]c(=O)/c1=C/c1ccc(OC)cc1	Not Active	Not Active	Not Active		Not Active			Not Active					Not Active		Not Active	Not Active
C=CCn1c(=O)/c(=C/CCCCCCCCC)[nH]c(=O)/c1=C/c1cccc(OC)c1	Not Active	Not Active	Not Active		Not Active			Not Active					Not Active		Not Active	Not Active
C=CCn1c(=O)/c(=C/CCCCCCC)[nH]c(=O)/c1=C/c1cccc(OC)c1	Not Active	Not Active	Not Active		Not Active			Not Active					Not Active		Not Active	Not Active
C=CCn1c(=O)/c(=C/CCCCCCCCC)[nH]c(=O)/c1=C/c1ccccc1OC	Not Active	Not Active	Not Active	10.4	Not Active	3.4	18.8	Not Active								
C=CCn1c(=O)/c(=C/CCCCCCCCCC)[nH]c(=O)/c1=C/c1cccc(OC)c1	Not Active	Not Active	Not Active		Not Active			Not Active					Not Active		Not Active	Not Active
